Measured values taken from patent publication US20120136003A1, “COMPOUNDS, COMPOSITIONS AND METHODS COMPRISING 1,3,4-OXADIAZOLE DERIVATIVES” (Institute For Oneworld Health, priority 2009, published 2012).

Tests used:
[1] = system: mice (CD1 strain), intestinal loops with cholera toxin (CTX); settings: mouse, in vivo
CFTR [2] = target: T1, CFTR (Homo sapiens, UniProt P13569); experiment: CHO-CFTR assay (FLIPR assay); assay type: cell-based; set-up: expressed in transfected cells; host or cells: CHO-K1 cells, stably transfected; settings: same assay conditions (FLIPR assay); read-out: IC50 value in the CHO-CFTR cell line
Target sequence in this assay (P13569 whole entry, species assumed): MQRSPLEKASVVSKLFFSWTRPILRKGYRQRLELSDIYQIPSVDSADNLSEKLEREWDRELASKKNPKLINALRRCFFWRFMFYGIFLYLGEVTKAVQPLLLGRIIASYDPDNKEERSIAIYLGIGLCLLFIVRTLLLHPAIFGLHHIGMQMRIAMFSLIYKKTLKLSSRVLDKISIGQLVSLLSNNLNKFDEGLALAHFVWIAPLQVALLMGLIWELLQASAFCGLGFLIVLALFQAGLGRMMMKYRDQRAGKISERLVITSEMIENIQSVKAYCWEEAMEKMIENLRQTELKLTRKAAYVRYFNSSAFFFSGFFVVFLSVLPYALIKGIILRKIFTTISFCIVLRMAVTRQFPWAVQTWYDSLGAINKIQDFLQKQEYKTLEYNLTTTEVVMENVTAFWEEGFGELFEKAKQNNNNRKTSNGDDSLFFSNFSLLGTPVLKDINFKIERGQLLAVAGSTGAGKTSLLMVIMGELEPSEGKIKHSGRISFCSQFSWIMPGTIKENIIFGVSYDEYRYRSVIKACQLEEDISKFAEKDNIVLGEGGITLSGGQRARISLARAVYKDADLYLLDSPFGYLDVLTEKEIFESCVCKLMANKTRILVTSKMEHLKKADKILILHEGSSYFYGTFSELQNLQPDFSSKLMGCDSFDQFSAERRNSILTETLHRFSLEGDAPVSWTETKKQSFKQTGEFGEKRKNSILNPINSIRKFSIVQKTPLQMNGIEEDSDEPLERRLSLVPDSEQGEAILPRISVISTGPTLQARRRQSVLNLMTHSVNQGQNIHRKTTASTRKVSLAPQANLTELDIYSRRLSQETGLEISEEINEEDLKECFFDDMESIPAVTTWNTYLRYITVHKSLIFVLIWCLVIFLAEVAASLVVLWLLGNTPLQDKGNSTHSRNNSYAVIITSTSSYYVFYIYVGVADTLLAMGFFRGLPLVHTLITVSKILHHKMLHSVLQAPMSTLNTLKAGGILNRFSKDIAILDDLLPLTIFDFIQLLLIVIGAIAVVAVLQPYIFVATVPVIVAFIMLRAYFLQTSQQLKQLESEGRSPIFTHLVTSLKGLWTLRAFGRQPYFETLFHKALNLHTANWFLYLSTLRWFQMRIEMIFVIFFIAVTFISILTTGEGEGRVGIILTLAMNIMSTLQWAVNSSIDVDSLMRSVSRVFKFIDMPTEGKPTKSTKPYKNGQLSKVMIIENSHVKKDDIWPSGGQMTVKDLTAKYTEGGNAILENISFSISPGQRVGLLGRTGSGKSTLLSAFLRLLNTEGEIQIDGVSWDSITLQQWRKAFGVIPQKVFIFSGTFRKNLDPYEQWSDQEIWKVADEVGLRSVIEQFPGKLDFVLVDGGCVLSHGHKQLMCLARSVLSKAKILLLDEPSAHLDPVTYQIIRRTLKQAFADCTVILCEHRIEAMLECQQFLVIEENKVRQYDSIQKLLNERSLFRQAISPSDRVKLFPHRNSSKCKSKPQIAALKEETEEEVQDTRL

CFTR [3] = target: T1, CFTR; experiment: CHO-CFTR IonWorks Quattro (IWQ) population patch clamp; assay type: cell-based; set-up: expressed in transfected cells; host or cells: CHO-K1 cells, stably transfected; settings: @-60 mV; room temperature
Method: Currents were recorded at room temperature (21-23° C.) using IonWorks® Quattro™ (Molecular Devices, Inc) Population Patch Clamp (PPC) mode automated electrophysiology recording techniques.
Before recording commenced, a T175 culture flask containing CHO-K^1 cells stably transfected with the CFTR gene were washed with 10 ml of Dulbecco's phosphate buffered saline (without Ca^2+ or Mg^2+) followed by addition of 1 ml of 0.05% Trypsin EDTA (Invitrogen, cat no. 25300054) to the flask. After 1-2 minutes incubation, flasks were gently tapped to lift the cells from the substrate and 10 ml of complete media added. Cells were spun at 1,000 rpm for 3 minutes, followed by re-suspension of the pellet in external buffer and use of the resulting cell suspension at a density of 2×10^6 cells per ml. The external solution used for recording was Dulbecco's phosphate buffered saline (Invitrogen, cat no. 14040091) and contained (in mM) 137.9 NaCl, 2.7 KCl, 0.901 CaCl2, 0.5 MgCl2.6H2O, 1.5 KH2PO4, 8.1 Na2HPO4.7H2O. The internal solution contained the following (in mM): 10 NaCl (Sigma, cat no. S7653), 90 KGluconate (Sigma, cat no. G4500), 30 KF (Sigma, cat no. 60238), 1 MgCl2 (Fluka, cat no. 63020), 5 EGTA (Sigma, cat no. E3889), 10 HEPES (Sigma, cat no. H3375); pH 7.4 with KOH. […]
Target sequence in this assay (P13569 whole entry, species assumed): as above

CFTR [4] = target: T1, CFTR; experiment: T84 assay (FLIPR membrane potential); assay type: cell-based; set-up: Human colonic T84 cells are acquired from the European Collection of Cell Cultures (ECACC); host or cells: T84 human colonic cells
Method: (§1) For example, Human colonic T84 cells can be acquired from the European Collection of Cell Cultures (ECACC) and grown in standard culture conditions as described by the supplier. On the day before assay 25,000 T84 cells per well are plated into standard black walled, clear bottom 384-well assay plates in standard growth medium consisting of DMEM:F12 with 10% FBS and incubated overnight. On the day of the assay the plates are washed using a standard assay buffer (HBSS with 10 mM Hepes) and incubated for 15 minutes in serum free cell culture medium before the addition of a commercially available membrane potential sensitive fluorescent dye (FLIPR Red membrane potential dye, Molecular Devices Corporation). T84 cells are incubated with the FLIPR Red membrane potential dye for 45 minutes in the presence and absence of test compound before being transferred to a commercially available fluorescence imaging plate reader (FLIPR384, Molecular Devices Corporation). Fluorescence levels are monitored continuously every second for 150 seconds; after an initial 10 second baseline, CFTR channel activity is stimulated through the addition of 10 μM forskolin in the presence of 100 μM of the phosphodiesterase inhibitor iso-butyl-methylxanthine (IBMX). Addition of the forskolin leads to the activation of intracellular adenylyl cylase 1, elevating cAMP levels and results in the phosphorylation and opening of CFTR anion channels. CFTR channel opening causes chloride ion efflux and subsequent depolarization of the cells, which is measured by an increase in fluorescence. CFTR inhibitor compounds prevent cell depolarization and the associated increase in fluorescence.
as §1, with “Human colonic” for “For example, Human colonic”, “T84 cells are acquired from” for “T84 cells can be acquired from”, “(ECACC) and are grown in” for “(ECACC) and grown in”, “with 10 Mm Hepes) and” for “with 10 mM Hepes) and”, “1, elevating Camp levels and” for “1, elevating cAMP levels and”
Target sequence in this assay (P13569 whole entry): as the sequence (P13569 whole entry, species assumed) above

O=C(c1nnc(-c2cc(Cl)c(O)c(Cl)c2)o1)N1CCN(c2cccc(C(F)(F)F)c2)CC1 [Compound 4, (5-(3,5-dichloro-4-hydroxyphenyl)-1,3,4-oxadiazol-2-yl)(4-(3-(trifluoromethyl)phenyl)piperazin-1-yl)methanone]
closed loop % inhibition [1]: 92.5% | IC50 (CFTR [2]): 10.6 µM | IC50 (CFTR [3]): 4.71 µM | IC50 (CFTR [4]): 16.9 µM
